This passage reports inhibition of growth, melting point and pest or weed control results from patent US20240343717A1, “MICROBIOCIDAL PYRAZOLE DERIVATIVES” (SYNGENTA CROP PROTECTION AG, priority 2021, published 2024).

Data set [1] has as its system Monographella nivalis (Microdochium nivale). Put plainly: Monographella nivalis (Microdochium nivale) / liquid culture (foot rot cereals). Type of data set: cell-based. The conditions noted are these: growth inhibition photometrically 4-5 days after application, read-out: control of Monographella nivalis. In outline:
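Fungal conidia mixed directly into potato dextrose broth and added to test compound delivered in DMSO. Incubated at 24° C; growth inhibition read photometrically 4-5 days after application.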

Data set [2] has as its system Glomerella lagenarium (Colletotrichum lagenarium). Put plainly: Glomerella lagenarium (Colletotrichum lagenarium) / liquid culture (anthracnose). Type of data set: cell-based. The note with it: Colletotrichum orbiculare, growth inhibition photometrically 3-4 days after application, read-out: control of Glomerella lagenarium. The method in brief: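 Cryo-stored conidia in potato dextrose broth were added to test compound in DMSO. Plates were incubated at 24° C, and growth inhibition was read photometrically 3-4 days after application.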

The test system of data set [3] is Mycosphaerella graminicola (Septoria tritici). Put plainly: Mycosphaerella graminicola (Septoria tritici) / liquid culture (Septoria blotch). Type of data set: cell-based. The conditions noted are these: Zymoseptoria tritici, growth inhibition photometrically 4-5 days after application, read-out: control of Mycosphaerella graminicola. In outline:
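Conidia suspended in potato dextrose broth and added to test compound supplied in DMSO in 96-well plates. Incubated at 24 °C, and growth inhibition read photometrically 4-5 days after application.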

In data set [4] the test system is Botryotinia fuckeliana (Botrytis cinerea). Put plainly: Botryotinia fuckeliana (Botrytis cinerea) / liquid culture (gray mould). Type of data set: cell-based. The conditions noted are these: growth inhibition photometrically 3-4 days after application, read-out: control of Botryotinia fuckeliana. The method in brief:
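Conidia suspended in Vogels broth and added to compound dispensed from DMSO. Incubated at 24°C, with growth inhibition measured photometrically 3–4 days later.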

Data set [5] deals with Fusarium culmorum. Put plainly: microbe, parasite or virus in culture. Type of data set: cell-based. The note with it: read-out: control of Fusarium culmorum.
The test system of data set [6] is Mycosphaerella arachidis (Cercospora arachidicola). The data set is described as follows: Mycosphaerella arachidis (Cercospora arachidicola) / liquid culture (early leaf spot). Type of data set: cell-based. The note with it: growth inhibition photometrically 4-5 days after application, read-out: control of Mycosphaerella arachidis. The method in brief: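 Spores taken straight from cryostorage are suspended in potato dextrose broth and added to test compound in DMSO. Plates are incubated at 24° C. Growth inhibition is scored photometrically 4-5 days after application.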

Data set [7] deals with Sclerotinia sclerotiorum. The data set is described as follows: Sclerotinia sclerotiorum / liquid culture (cottony rot). Type of data set: cell-based. The note with it: growth inhibition photometrically 3-4 days after application, read-out: control of Sclerotinia sclerotiorum. Here is the method: Example B15: Sclerotinia sclerotiorum/Liquid Culture (Cottony Rot) Mycelia fragments of a newly grown liquid culture of the fungus are directly mixed into nutrient broth (PDB potato dextrose broth). After placing a (DMSO) solution of test compound into a microtiter plate (96-well format) the nutrient broth containing the fungal material is added. The test plates are incubated at 24° C. and the inhibition of growth is determined photometrically 3-4 days after application.

The test system of data set [8] is Pyrenophora teres. Put plainly: Pyrenophora teres / barley / leaf disc preventative (net blotch). Type of data set: in vivo. The conditions noted are these: foliar, barley leaf segments, inoculated 2 days after application. In outline:
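Barley cv. Hasso leaf segments on agar sprayed with formulated compound, inoculated with spores 2 days later. Incubated at 20 °C, 65% rh, 12 h light/dark; disease control versus untreated assessed 5–7 days after application.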

The subject of data set [9] is Phaeosphaeria nodorum (Septoria nodorum). Put plainly: Phaeosphaeria nodorum (Septoria nodorum) / wheat / leaf disc preventative (glume blotch). The note with it: Parastagonospora nodorum, foliar, wheat leaf segments, inoculated 2 days after application. Type of data set: in vivo. How it is done: Example B8: Phaeosphaeria nodorum (Septoria nodorum)/Wheat/Leaf Disc Preventative (Glume Blotch) Wheat leaf segments cv. Kanzler are placed on agar in a multiwell plate (24-well format) and sprayed with the formulated test compound diluted in water. The leaf disks are inoculated with a spore suspension of the fungus 2 days after application. The inoculated test leaf disks are incubated at 20° C. and 75% rh under a light regime of 12 h light/12 h darkness in a climate cabinet and the activity of a compound is assessed as percent disease control compared to untreated when an appropriate level of disease damage appears in untreated check leaf disks (5-7 days after application).

The subject of data set [10] is Blumeria graminis f. sp. tritici (Erysiphe graminis f. sp. tritici). Put plainly: Blumeria graminis f. sp. tritici / wheat / leaf disc preventative (powdery mildew on wheat). Type of data set: in vivo. The note with it: foliar, wheat leaf segments, inoculated 1 day after application. Here is the method: Example B4: Blumeria graminis f. Sp. Tritici (Erysiphe graminis f. Sp. Tritici)/Wheat/Leaf Disc Preventative (Powdery Mildew on Wheat) Wheat leaf segments cv. Kanzler are placed on agar in a multiwell plate (24-well format) and sprayed with the formulated test compound diluted in water. The leaf disks are inoculated by shaking powdery mildew infected plants above the test plates 1 day after application. The inoculated leaf disks are incubated at 20° C. and 60% rh under a light regime of 24 h darkness followed by 12 h light/12 h darkness in a climate chamber and the activity of a compound is assessed as percent disease control compared to untreated when an appropriate level of disease damage appears on untreated check leaf segments (6-8 days after application).

Data set [11] has as its system Alternaria solani. The data set is described as follows: Alternaria solani / tomato / leaf disc (early blight). Type of data set: in vivo. The conditions noted are these: foliar, tomato leaf disks, sprayed 2 days before inoculation, compared to untreated control. Here is the method:
Example B1: Alternaria solani/Tomato/Leaf Disc (Early Blight) Tomato leaf disks cv. Baby are placed on agar in multiwell plates (24-well format) and sprayed with the formulated test compound diluted in water. The leaf disks are inoculated with a spore suspension of the fungus 2 days after application. The inoculated leaf disks are incubated at 23° C./21° C.

Regarding `Cn1ncc(C(CNC(=O)c2nnc(-c3ccc(F)cc3F)s2)c2cccc(Cl)n2)c1Cl` (stereo not shown) [Compound P-116, N-[2-(5-chloro-1-methyl-pyrazol-4-yl)-2-(6-chloro-2-pyridyl)ethyl]-5-(2,4-difluorophenyl)-1,3,4-thiadiazole-2-carboxamide], the melting point was 150 to 151 °C. Further, the inhibition of growth at 20 ppm in data set [1] is no less than 80%. In addition, in [2], the inhibition of growth at 20 ppm is no less than 80%. In addition, the inhibition of growth at 20 ppm in data set [3] was no less than 80%. Also, the inhibition of growth at 20 ppm in data set [4] was no less than 80%. Further, in data set [5], the inhibition of growth at 20 ppm was no less than 80%. Also, the inhibition of growth at 20 ppm in data set [6] was no less than 80%.

`Cn1cc(C(C)(CNC(=O)c2nnc(-c3ccc(F)cc3F)s2)c2cccc(C#N)n2)cn1` (stereo not shown) [Compound P-115, N-[2-(6-cyano-2-pyridyl)-2-(1-methylpyrazol-4-yl)propyl]-5-(2,4-difluorophenyl)-1,3,4-thiadiazole-2-carboxamide] returned a melting point of 169 to 170 °C. In data set [1], the inhibition of growth at 20 ppm is no less than 80%. The inhibition of growth at 20 ppm in data set [2] is no less than 80%. The inhibition of growth at 20 ppm in data set [3] is no less than 80%. In [4], the inhibition of growth at 20 ppm was no less than 80%. Moreover, the inhibition of growth at 20 ppm in data set [5] is no less than 80%. In addition, the inhibition of growth at 20 ppm in data set [6] was no less than 80%.

In turn, `CO/N=C(\C)c1ccnc(C(C)(CNC(=O)c2cc(-c3ccc(F)cc3F)on2)c2cnn(C)c2)c1` (stereo not shown) [Compound P-72, 5-(2,4-difluorophenyl)-N-[2-[4-[(E)-N-methoxy-C-methyl-carbonimidoyl]-2-pyridyl]-2-(1-methylpyrazol-4-yl)propyl]isoxazole-3-carboxamide] returned a melting point of 88 to 90 °C. The inhibition of growth at 20 ppm in [1] is no less than 80%.

In the case of `Cn1cc(C(C)(CNC(=O)c2cc(-c3ccc(F)cc3F)on2)c2cccc(C3CC3)n2)cn1` (stereo not shown) [Compound P-102, N-[2-(6-cyclopropyl-2-pyridyl)-2-(1-methylpyrazol-4-yl)propyl]-5-(2,4-difluorophenyl) isoxazole-3-carboxamide], the inhibition of growth at 20 ppm in data set [7], in data set [1], in data set [2], in data set [3], in [4] and in data set [5] was no less than 80% in each case. In data set [6], the inhibition of growth at 20 ppm was no less than 80%. The pest or weed control at 200 ppm in data set [8] and in [9] was no less than 80% throughout.

Regarding `Cc1cc(-c2cc(C(=O)NCC(C)(c3cnn(C)c3)c3cccc(Cl)n3)no2)n(C)n1` (stereo not shown) [Compound P-85, N-[2-(6-chloro-2-pyridyl)-2-(1-methylpyrazol-4-yl)propyl]-5-(2,5-dimethylpyrazol-3-yl)isoxazole-3-carboxamide], the melting point was 182 to 184 °C. Further, the inhibition of growth at 20 ppm in [2] was no less than 80%. For the same compound, the inhibition of growth at 20 ppm in [3] was no less than 80%. In data set [8], this compound gave a pest or weed control at 200 ppm of no less than 80%. The pest or weed control at 200 ppm in [10] is no less than 80%.

Take `Cn1cc(C(C)(CNC(=O)c2cc(-c3ccc(F)cc3F)on2)c2cc(C#N)ccn2)cn1` (stereo not shown) [Compound P-63, N-[2-(4-cyano-2-pyridyl)-2-(1-methylpyrazol-4-yl)propyl]-5-(2,4-difluorophenyl) isoxazole-3-carboxamide]: the melting point lay in the range of 156 to 158 °C. In addition, in [3], the inhibition of growth at 20 ppm is no less than 80%. In [8], this compound returned a pest or weed control at 200 ppm of no less than 80%.

`Cn1cc(C(C)(CNC(=O)c2cc(-c3cccn3C)on2)c2cccc(Cl)n2)cn1` (stereo not shown) [Compound P-81, N-[2-(6-chloro-2-pyridyl)-2-(1-methylpyrazol-4-yl)propyl]-5-(1-methylpyrrol-2-yl)isoxazole-3-carboxamide] had a melting point of 111 to 113 °C. In addition, the inhibition of growth at 20 ppm in data set [1] was no less than 80%. Moreover, in data set [2], the inhibition of growth at 20 ppm was no less than 80%. For the same compound, the inhibition of growth at 20 ppm in data set [3] is no less than 80%. Further, in data set [4], the inhibition of growth at 20 ppm was no less than 80%. Besides, the inhibition of growth at 20 ppm in [6] is no less than 80%.

With `Cn1ncc(C(C)(CNC(=O)c2nnc(-c3ccc(F)cc3F)s2)c2cccc(Cl)n2)c1Cl` (stereo not shown) [Compound P-25, N-[2-(5-chloro-1-methyl-pyrazol-4-yl)-2-(6-chloro-2-pyridyl)propyl]-5-(2,4-difluorophenyl)-1,3,4-thiadiazole-2-carboxamide], the inhibition of growth at 20 ppm in data set [7], in data set [1], in data set [2], in [3], in data set [4] and in data set [5] was no less than 80% each time. For the same compound, in data set [6], the inhibition of growth at 20 ppm was no less than 80%. The pest or weed control at 200 ppm in data set [11], in [8], in data set [9] and in data set [10] was no less than 80% each time.

For `Cn1cc(C(C)(CNC(=O)c2nc(-c3ccc(F)cc3F)no2)c2cccc(Cl)n2)cn1` (stereo not shown) [Compound P-84, N-[2-(6-chloro-2-pyridyl)-2-(1-methylpyrazol-4-yl)propyl]-3-(2,4-difluorophenyl)-1,2,4-oxadiazole-5-carboxamide], the inhibition of growth at 20 ppm in data set [7], in data set [1], in [2], in data set [3], in data set [4] and in data set [5] was no less than 80% throughout. In addition, in [6], the inhibition of growth at 20 ppm was no less than 80%. Further, the pest or weed control at 200 ppm in data set [11], in data set [8], in [9] and in [10] was no less than 80% each time.

`COc1cnc(Cl)nc1C(C)(CNC(=O)c1cc(-c2ccc(F)cc2F)on1)c1cnn(C)c1` (stereo not shown) [Compound P-65, N-[2-(2-chloro-5-methoxy-pyrimidin-4-yl)-2-(1-methylpyrazol-4-yl)propyl]-5-(2,4-difluorophenyl) isoxazole-3-carboxamide] returned a melting point of 145 to 151 °C.

Take `COc1ccc(C(C)(CNC(=O)c2cc(-c3ccc(F)cc3F)on2)c2cnn(C)c2)nc1Cl` (stereo not shown) [Compound P-14, N-[2-(6-chloro-5-methoxy-2-pyridyl)-2-(1-methylpyrazol-4-yl)propyl]-5-(2,4-difluorophenyl) isoxazole-3-carboxamide]: the melting point lay in the range of 196 to 199 °C. The inhibition of growth at 20 ppm in data set [3] is no less than 80%.
